Reference: patent US10335409B2 (priority 2012, dated 2019)

Legend:
[1] = tested on: genotype 1a NS3/4a protease inhibitor resistant variant R155K transient HCV replicon in Huh-7-derived cells; test: Transient-transfected HCV replicon EC50, genotype 1a R155K; assay type: cell-based, hepatitis C virus; conditions: Hepatitis C virus, 72 h, read-out: EC50 1A R155K, transient-transfected replicon genotype 1a R155K resistant variant, 72 h
[2] = tested on: genotype 3a (S52) stable HCV replicon in Huh-7-derived cells; test: Stable subgenomic HCV replicon EC50, genotype 3a (Renilla luciferase); assay type: cell-based, hepatitis C virus; conditions: Hepatitis C virus, 72 h, read-out: EC50 3A RLUC
[3] = biological target: HCV NS3 protease domain genotype 3a (Hepatitis C virus genotype 3a, UniProt Q81258); test: Ki determination, NS3 protease genotype 3a (fluorogenic depsipeptide substrate); assay type: biochemical; conditions: 200 pM enzyme, NS4A peptide
Chain of HCV NS3 protease domain genotype 3a (Q81258 whole entry, looked up, the tested form may be a part): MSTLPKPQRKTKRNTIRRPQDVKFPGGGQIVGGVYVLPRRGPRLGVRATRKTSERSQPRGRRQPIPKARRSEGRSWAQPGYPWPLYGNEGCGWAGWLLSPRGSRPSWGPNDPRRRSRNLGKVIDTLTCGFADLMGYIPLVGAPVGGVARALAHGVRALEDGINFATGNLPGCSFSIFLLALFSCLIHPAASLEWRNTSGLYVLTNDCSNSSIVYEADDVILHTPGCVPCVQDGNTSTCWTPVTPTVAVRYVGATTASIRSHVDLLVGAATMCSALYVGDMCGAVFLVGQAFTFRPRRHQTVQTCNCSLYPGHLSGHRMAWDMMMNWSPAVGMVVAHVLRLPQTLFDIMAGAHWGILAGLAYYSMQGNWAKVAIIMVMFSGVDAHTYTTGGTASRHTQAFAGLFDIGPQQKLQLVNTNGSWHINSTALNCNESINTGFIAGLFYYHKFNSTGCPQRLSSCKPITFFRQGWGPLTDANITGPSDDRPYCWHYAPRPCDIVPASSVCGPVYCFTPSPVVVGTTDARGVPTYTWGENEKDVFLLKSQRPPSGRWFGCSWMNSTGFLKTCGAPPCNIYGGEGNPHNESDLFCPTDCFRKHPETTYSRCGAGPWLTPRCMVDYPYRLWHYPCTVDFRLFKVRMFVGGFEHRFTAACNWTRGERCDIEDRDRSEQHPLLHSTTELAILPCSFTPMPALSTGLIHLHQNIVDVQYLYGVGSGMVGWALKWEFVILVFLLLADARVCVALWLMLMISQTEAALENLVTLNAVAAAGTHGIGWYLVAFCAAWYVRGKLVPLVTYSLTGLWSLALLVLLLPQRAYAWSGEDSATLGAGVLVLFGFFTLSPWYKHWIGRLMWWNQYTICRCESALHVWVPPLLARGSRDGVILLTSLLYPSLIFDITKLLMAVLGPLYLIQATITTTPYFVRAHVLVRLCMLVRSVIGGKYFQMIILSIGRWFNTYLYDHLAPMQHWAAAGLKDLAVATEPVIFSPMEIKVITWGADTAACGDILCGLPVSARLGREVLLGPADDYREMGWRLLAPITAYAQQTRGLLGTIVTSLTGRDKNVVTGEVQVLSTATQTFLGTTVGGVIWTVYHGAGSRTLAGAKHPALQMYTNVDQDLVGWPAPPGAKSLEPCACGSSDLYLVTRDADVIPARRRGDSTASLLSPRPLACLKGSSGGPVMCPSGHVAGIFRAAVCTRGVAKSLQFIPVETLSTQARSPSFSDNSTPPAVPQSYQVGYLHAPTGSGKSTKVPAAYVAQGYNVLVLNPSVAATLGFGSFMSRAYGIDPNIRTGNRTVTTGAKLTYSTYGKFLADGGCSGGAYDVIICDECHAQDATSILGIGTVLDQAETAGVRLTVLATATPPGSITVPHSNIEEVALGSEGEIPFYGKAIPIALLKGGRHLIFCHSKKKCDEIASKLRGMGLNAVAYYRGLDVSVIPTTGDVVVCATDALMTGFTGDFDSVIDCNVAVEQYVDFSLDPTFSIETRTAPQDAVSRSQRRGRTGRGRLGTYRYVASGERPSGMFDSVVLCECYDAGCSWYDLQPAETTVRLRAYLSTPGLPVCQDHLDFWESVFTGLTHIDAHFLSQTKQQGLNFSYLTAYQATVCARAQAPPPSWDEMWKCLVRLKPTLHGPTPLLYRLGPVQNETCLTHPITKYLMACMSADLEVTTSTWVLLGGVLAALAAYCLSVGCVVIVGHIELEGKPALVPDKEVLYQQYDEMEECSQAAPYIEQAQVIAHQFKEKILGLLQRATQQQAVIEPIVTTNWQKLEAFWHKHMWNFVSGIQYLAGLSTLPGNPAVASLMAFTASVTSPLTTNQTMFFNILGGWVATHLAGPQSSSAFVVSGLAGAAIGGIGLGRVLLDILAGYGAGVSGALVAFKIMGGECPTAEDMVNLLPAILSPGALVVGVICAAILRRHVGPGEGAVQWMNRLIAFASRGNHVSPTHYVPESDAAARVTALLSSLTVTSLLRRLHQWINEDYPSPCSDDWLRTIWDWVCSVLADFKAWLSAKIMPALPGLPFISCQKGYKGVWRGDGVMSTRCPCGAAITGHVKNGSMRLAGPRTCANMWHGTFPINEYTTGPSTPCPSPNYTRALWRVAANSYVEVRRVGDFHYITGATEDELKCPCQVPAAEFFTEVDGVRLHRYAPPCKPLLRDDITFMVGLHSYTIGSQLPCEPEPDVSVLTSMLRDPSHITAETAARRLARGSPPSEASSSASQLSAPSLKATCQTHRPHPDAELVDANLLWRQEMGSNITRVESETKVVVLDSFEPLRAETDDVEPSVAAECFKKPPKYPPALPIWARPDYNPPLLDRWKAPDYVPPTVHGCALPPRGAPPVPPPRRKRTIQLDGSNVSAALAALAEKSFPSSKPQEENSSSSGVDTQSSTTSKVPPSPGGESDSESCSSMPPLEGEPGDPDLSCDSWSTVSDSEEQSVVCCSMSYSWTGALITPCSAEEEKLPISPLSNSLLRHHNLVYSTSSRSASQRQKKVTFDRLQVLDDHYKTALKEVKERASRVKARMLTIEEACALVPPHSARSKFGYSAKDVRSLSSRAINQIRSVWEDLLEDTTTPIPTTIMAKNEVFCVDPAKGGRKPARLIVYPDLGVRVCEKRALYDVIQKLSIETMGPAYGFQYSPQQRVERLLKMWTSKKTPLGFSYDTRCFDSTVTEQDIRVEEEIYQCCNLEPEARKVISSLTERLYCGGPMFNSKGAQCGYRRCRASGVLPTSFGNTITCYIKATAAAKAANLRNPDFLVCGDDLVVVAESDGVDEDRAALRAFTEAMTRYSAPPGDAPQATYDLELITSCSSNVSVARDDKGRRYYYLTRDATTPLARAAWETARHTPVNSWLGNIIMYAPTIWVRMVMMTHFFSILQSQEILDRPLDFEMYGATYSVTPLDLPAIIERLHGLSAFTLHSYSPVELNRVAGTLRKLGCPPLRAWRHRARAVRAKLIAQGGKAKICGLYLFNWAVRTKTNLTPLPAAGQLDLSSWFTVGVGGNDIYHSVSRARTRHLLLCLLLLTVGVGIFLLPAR
Method in brief: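 The NS3 protease domain (aa 1-181) with 20 μM NS4A peptide was used at 50 pM with 4 μM substrate (1b) or at 200 pM with 2 μM substrate (3a). Inhibitors (100 nM-5 pM) were pre-incubated 1 h at room temperature in HEPES/glycerol/DTT buffer with 10% DMSO. Steady-state rates (90-120 min) gave Ki via the Morrison equation, corrected for active enzyme and [S]/Km.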

[4] = tested on: genotype 1b NS3/4a protease inhibitor resistant variant D168A transient HCV replicon in Huh-7-derived cells; test: Transient-transfected HCV replicon EC50, genotype 1b D168A; assay type: cell-based, hepatitis C virus; conditions: Hepatitis C virus, 72 h, read-out: EC50 1B D168A, transient-transfected replicon genotype 1b D168A resistant variant, 72 h
[5] = tested on: genotype 4a (ED43) stable HCV replicon in Huh-7-derived cells; test: Stable subgenomic HCV replicon EC50, genotype 4a (Renilla luciferase); assay type: cell-based, hepatitis C virus; conditions: Hepatitis C virus, 72 h, read-out: EC50 4A RLUC
Method in brief: (§1)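 Compounds, three-fold diluted, were applied to Huh-7-derived cells harbouring luciferase replicons (genotype 1a H77, 1b Con1, 2a JFH-1, 4a ED43, with strain-specific adaptive mutations). Seventy-two hours later, intracellular replication was gauged by Renilla luciferase activity and EC50 derived by regression.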

[6] = tested on: genotype 1b (Con1) wild type transient HCV replicon in Huh-7-derived cells; test: Transient-transfected HCV replicon EC50, genotype 1b wild type; assay type: cell-based, hepatitis C virus; conditions: Hepatitis C virus, 72 h, transient-transfected replicon genotype 1b wild type, read-out: EC50 1B WT
[7] = biological target: HCV NS3 protease domain genotype 1b (Hepatitis C virus genotype 1b (isolate Con1), UniProt Q9WMX2, E1202G); test: Ki determination, NS3 protease genotype 1b (fluorogenic depsipeptide substrate); assay type: biochemical; conditions: 50 pM enzyme, NS4A peptide
Chain of HCV NS3 protease domain genotype 1b (Q9WMX2 1027-1208 E1202G): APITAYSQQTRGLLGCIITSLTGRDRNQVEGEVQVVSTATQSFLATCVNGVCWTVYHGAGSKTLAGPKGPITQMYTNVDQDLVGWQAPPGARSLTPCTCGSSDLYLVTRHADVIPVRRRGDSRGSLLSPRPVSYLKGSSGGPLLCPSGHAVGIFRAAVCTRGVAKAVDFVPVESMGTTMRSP
Method: Purified NS3 protease domain (amino acids 1-181) of the genotype 1b and 3a virus were generated as above.
Reactions were run at room temperature in buffer consisting of 50 mM HEPES, 40% glycerol, 0.05% Triton X-100, 10 mM DTT, and 10% DMSO. The final assay solutions contained 50 pM NS3 genotype 1 b protease or 200 pM genotype 3a protease, 20 μM NS4A peptide, and 4 μM substrate (genotype 1b) or 2 μM substrate (genotype 3a). Inhibitor concentrations varied from 100 nM to 5 pM in 3-fold dilutions, and no-inhibitor controls were included.
Compound dilutions were made in DMSO at 20× final concentration. Reaction mixtures were prepared in 96-well assay plates. A solution of enzyme and NS4A peptide in assay buffer (25 μL volume with both reagents at 4× final concentration) was mixed with 45 μL assay buffer and 5 μL of either inhibitor or DMSO, and pre-incubated at room temperature for 1 hour. The reaction was started by addition of 25 μL substrate solution at 4× final concentration. Plates were mixed vigorously for 5-10 seconds and reactions were allowed to proceed for 90 minutes, fluorescence was measured every 30 s between 90 and 120 minutes reaction time using a Tecan InfiniTe M1000 or PerkinElmer Envision multimode plate reader with an excitation wavelength of 340 nm and an emission wavelength of 490 nm.
To determine the Ki, rates were plotted as a function of inhibitor concentration, and the data were fit with equation 1 (Morrison, J. F., Biochimica et Biophysica Acta 1969, 185, 269-286) to calculate Ki^app using GraphPad Prism 5. […] Ki was calculated from Ki^app/(1+[[S]/Km]).

[8] = tested on: genotype 2a (JFH-1) stable HCV replicon in Huh-7-derived cells; test: Stable subgenomic HCV replicon EC50, genotype 2a (Renilla luciferase); assay type: cell-based, hepatitis C virus; conditions: Hepatitis C virus, stable replicon genotype 2a, 72 h, read-out: EC50 2A RLUC
Method in brief: as §1

[9] = tested on: genotype 1a (H77) stable HCV replicon in Huh-7-derived cells; test: Stable subgenomic HCV replicon EC50, genotype 1a (Renilla luciferase); assay type: cell-based, hepatitis C virus; conditions: Hepatitis C virus, stable replicon genotype 1a, 72 h, read-out: EC50 1A RLUC
Method in brief: as §1

[10] = tested on: genotype 1b (Con1) stable HCV replicon in Huh-7-derived cells; test: Stable subgenomic HCV replicon EC50, genotype 1b (Renilla luciferase); assay type: cell-based, hepatitis C virus; conditions: Hepatitis C virus, stable replicon genotype 1b, 72 h, read-out: EC50 1B RLUC
Method in brief: as §1

[11] = tested on: genotype 1a (H77) wild type transient HCV replicon in Huh-7-derived cells; test: Transient-transfected HCV replicon EC50, genotype 1a wild type; assay type: cell-based, hepatitis C virus; conditions: Hepatitis C virus, 72 h, transient-transfected replicon genotype 1a wild type, read-out: EC50 1A WT
[12] = tested on: genotype 3a (S52) wild type transient HCV replicon in Huh-7-derived cells; test: Transient-transfected HCV replicon EC50, genotype 3a wild type; assay type: cell-based, hepatitis C virus; conditions: Hepatitis C virus; transient-transfected replicon genotype 3a wild type, 72 h; read-out: EC50 3A WT

CC[C@@H]1[C@@H]2CN(C(=O)[C@H](C3CCCC3)NC(=O)O[C@@H]3C[C@H]3CCCCCc3nc4ccc(OC)cc4nc3O2)[C@@H]1C(=O)N[C@]1(C(=O)NS(=O)(=O)C2(C)CC2)C[C@H]1C(F)F [Example 14, (1aR,5S,8S,9S,10R,22aR)-5-cyclopentyl-N-[(1R,2R)-2-(difluoromethyl)-1-{[(1-methylcyclopropyl)sulfonyl]carbamoyl}cyclopropyl]-9-ethyl-14-methoxy-3,6-dioxo-1,1a,3,4,5,6,9,10,18,19,20,21,22,22a-tetradecahydro-8H-7,10-methanocyclopropa[18,19][1,10,3,6]dioxadiazacyclononadecino[11,12-b]quinoxaline-8-carboxamide]
EC50 [1]: 21 nM | EC50 [2]: 308 nM | Ki [3]: 0.24 nM | EC50 [4]: 99 nM | EC50 [5]: 7.3 nM | EC50 [6]: 4 nM | Ki [7]: 0.07 nM | EC50 [8]: 7 nM | EC50 [9]: 9.7 nM | EC50 [10]: 6.8 nM | EC50 [11]: 7.4 nM

CC[C@@H]1[C@@H]2CN(C(=O)[C@H](C(C)(C)C)NC(=O)O[C@@H]3CCC[C@H]3CCCCCc3nc4ccc(OC)cc4nc3O2)[C@@H]1C(=O)N[C@]1(C(=O)NS(=O)(=O)C2CC2)C[C@H]1C(F)F [Example 5, (3aR,7S,10S,11S,12R,24aR)-7-tert-butyl-N-[(1R,2R)-1-[(cyclopropylsulfonyl)carbamoyl]-2-(difluoromethyl)cyclopropyl]-11-ethyl-16-methoxy-5,8-dioxo-1,2,3,3a,5,6,7,8,11,12,20,21,22,23,24,24a-hexadecahydro-10H-9,12-methanocyclopenta[18,19][1,10,3,6]dioxadiazacyclononadecino[11,12-b]quinoxaline-10-carboxamide]
EC50 [1]: 17 nM | EC50 [2]: 405 nM | Ki [3]: 0.17 nM | EC50 [4]: 91 nM | EC50 [5]: 6.9 nM | EC50 [6]: 3.2 nM | Ki [7]: 0.04 nM | EC50 [8]: 11 nM | EC50 [9]: 8.7 nM | EC50 [10]: 7.4 nM | EC50 [11]: 3.7 nM

CC[C@@H]1[C@@H]2CN(C(=O)[C@H](C(C)(C)C)NC(=O)O[C@@H]3[C@H]4CC[C@H](C4)[C@H]3CCCCCc3nc4ccc(OC)cc4nc3O2)[C@@H]1C(=O)N[C@]1(C(=O)NS(=O)(=O)C2CC2)C[C@H]1C(F)F [Example 13, (1R,4S,4aR,8S,11S,12S,13R,25aR)-8-tert-butyl-N-[(1R,2R)-1-[(cyclopropylsulfonyl)carbamoyl]-2-(difluoromethyl)cyclopropyl]-12-ethyl-17-methoxy-6,9-dioxo-2,3,4,4a,6,7,8,9,12,13,21,22,23,24,25,25a-hexadecahydro-1H,11H-1,4:10,13-dimethanoquinoxalino[2,3-k][1,10,3,6]benzodioxadiazacyclononadecine-11-carboxamide]
EC50 [1]: 59 nM | EC50 [2]: 685 nM | Ki [3]: 0.18 nM | EC50 [4]: 209 nM | EC50 [5]: 11 nM | EC50 [6]: 3.1 nM | Ki [7]: 0.04 nM | EC50 [8]: 26 nM | EC50 [9]: 13 nM | EC50 [10]: 9.5 nM | EC50 [11]: 8.6 nM

COc1ccc2nc3c(nc2c1)O[C@H]1CN(C(=O)[C@H](C(C)(C)C)NC(=O)O[C@@H]2C[C@H]2CCCCC3(F)F)[C@H](C(=O)N[C@]2(C(=O)NS(=O)(=O)C3(C)CC3)C[C@H]2C(F)F)[C@@H]1C [Example 46, (1aR,5S,8S,9S,10R,22aR)-5-tert-butyl-N-[(1R,2R)-2-(difluoromethyl)-1-{[(1-methylcyclopropyl)sulfonyl]carbamoyl}cyclopropyl]-18,18-difluoro-14-methoxy-9-methyl-3,6-dioxo-1,1a,3,4,5,6,9,10,18,19,20,21,22,22a-tetradecahydro-8H-7,10-methanocyclopropa[18,19][1,10,3,6]dioxadiazacyclononadecino[11,12-b]quinoxaline-8-carboxamide]
EC50 [1]: 3.2 nM | EC50 [2]: 17 nM | Ki [3]: 0.05 nM | EC50 [4]: 4.5 nM | EC50 [5]: 2.5 nM | EC50 [6]: 1.2 nM | EC50 [12]: 6.79 nM | EC50 [8]: 3.8 nM | EC50 [9]: 3.1 nM | EC50 [10]: 2.7 nM | EC50 [11]: 2.4 nM

COc1ccc2nc3c(nc2c1)O[C@H]1CN(C(=O)[C@H](C(C)(C)C)NC(=O)O[C@]2(C)C[C@H]2CCCCC3)[C@H](C(=O)N[C@]2(C(=O)NS(=O)(=O)C3(C)CC3)C[C@H]2C(F)F)[C@@H]1C [Example 44, (1aR,5S,8S,9S,10R,22aR)-5-tert-butyl-N-[(1R,2R)-2-(difluoromethyl)-1-{[(1-methylcyclopropyl)sulfonyl]carbamoyl}cyclopropyl]-14-methoxy-1a,9-dimethyl-3,6-dioxo-1,1a,3,4,5,6,9,10,18,19,20,21,22,22a-tetradecahydro-8H-7,10-methanocyclopropa[18,19][1,10,3,6]dioxadiazacyclononadecino[11,12-b]quinoxaline-8-carboxamide]
EC50 [1]: 4 nM | EC50 [2]: 53 nM | Ki [3]: 0.08 nM | EC50 [4]: 15 nM | EC50 [5]: 2.2 nM | EC50 [6]: 1.4 nM | EC50 [12]: 7 nM | EC50 [8]: 2.9 nM | EC50 [9]: 3.1 nM | EC50 [10]: 2.1 nM | EC50 [11]: 2.4 nM

COc1ccc2nc3c(nc2c1)O[C@H]1CN(C(=O)[C@H](C(C)(C)C)NC(=O)O[C@]2(C)C[C@H]2CCCCC3(F)F)[C@H](C(=O)N[C@]2(C(=O)NS(=O)(=O)C3(C)CC3)C[C@H]2C(F)F)[C@@H]1C [Example 76, (1aR,5S,8S,9S,10R,22aR)-5-tert-butyl-N-[(1R,2R)-2-(difluoromethyl)-1-{[(1-methylcyclopropyl)sulfonyl]carbamoyl}cyclopropyl]-18,18-difluoro-14-methoxy-1a,9-dimethyl-3,6-dioxo-1,1a,3,4,5,6,9,10,18,19,20,21,22,22a-tetradecahydro-8H-7,10-methanocyclopropa[18,19][1,10,3,6]dioxadiazacyclononadecino[11,12-b]quinoxaline-8-carboxamide]
EC50 [1]: 2.1 nM | EC50 [2]: 9 nM | Ki [3]: 0.06 nM | EC50 [4]: 2.8 nM | EC50 [5]: 1.9 nM | EC50 [6]: 1 nM | EC50 [12]: 3.4 nM | EC50 [8]: 2.4 nM | EC50 [9]: 2.4 nM | EC50 [10]: 2.2 nM | EC50 [11]: 2 nM
